# ChEMBL document CHEMBL4680211, “Synthesis and structure-activity relationship study of water-soluble carbazole sulfonamide derivatives as new anticancer agents” (Eur J Med Chem, 2020)
# pIC50: −log10 of the molar value.
# How the values were obtained:
# [1] = tested on: HepG2; test: Antiproliferative activity against human HepG2 cells measured after 48 hrs by SRB assay; assay type: functional, cell-based; conditions: Homo sapiens, HepG2, 48 h
# [2] = tested on: Bel-7402; test: Antiproliferative activity against human Bel-7402 cells measured after 48 hrs by SRB assay; assay type: functional, cell-based; conditions: Homo sapiens, Bel-7402, 48 h
# [3] = tested on: MCF7; test: Antiproliferative activity against human MCF7 cells measured after 48 hrs by SRB assay; assay type: functional, cell-based; conditions: Homo sapiens, MCF7, 48 h
# [4] = Acute toxicity in Kunming mouse assessed as survival at 100 mg/kg, iv measured for 7 days relative to control; assay type: organism-based; conditions: in vivo, time 7 day
# [5] = Acute toxicity in Kunming mouse assessed as survival at 80 mg/kg, iv measured for 7 days relative to control; assay type: organism-based; conditions: in vivo, time 7 day
# [6] = Acute toxicity in Kunming mouse assessed as survival at 60 mg/kg, iv measured for 7 days relative to control; assay type: organism-based; conditions: in vivo, time 7 day
# [7] = Acute toxicity in Kunming mouse assessed as survival at 40 mg/kg, iv measured for 7 days relative to control; assay type: organism-based; conditions: in vivo, time 7 day
# [8] = Acute toxicity in iv dosed Kunming mouse measured for 7 days; assay type: organism-based; conditions: in vivo, time 7 day
# [9] = tested on: HepG2; test: Antitumor activity against human HepG2 cells xenografted in BALB/c nude mouse assessed as tumor volume at 10 mg/kg, iv qod for 14 to 29 days measured on day 1 (reference value: 154.04 +/- 3120); assay type: functional; conditions: time 14-29 day
# [10] = tested on: HepG2; test: Antitumor activity against human HepG2 cells xenografted in BALB/c nude mouse assessed as tumor volume at 10 mg/kg, iv qod for 14 to 29 days measured on day 29 (reference value: 2,838.93 +/- 737.40); assay type: functional; conditions: time 14-29 day
# [11] = tested on: HepG2; test: Antitumor activity against human HepG2 cells xenografted in BALB/c nude mouse assessed as tumor growth inhibition at 10 mg/kg, iv qod for 14 to 29 days relative to control; assay type: functional; conditions: time 14-29 day, read-out: TGI
# [12] = Toxicity in human HepG2 cells xenografted BALB/c nude mouse assessed as change in tumor weight at 10 mg/kg, iv qod for 14 to 29 days (reference value: 4.52 g); assay type: organism-based; conditions: in vivo, time 14-29 day
# [13] = tested on: HepG2; test: Antitumor activity against human HepG2 cells xenografted in BALB/c nude mouse assessed as tumor growth inhibition at 5 mg/kg, iv qod for 14 to 29 days relative to control; assay type: functional; conditions: time 14-29 day, read-out: TGI
# [14] = tested on: HepG2; test: Antitumor activity against GFP-labelled human HepG2 cells xenografted in BALB/c nude mouse assessed as tumor growth inhibition at 10 mg/kg, iv qod for 29 days relative to control; assay type: functional; conditions: 696 h, time 29 day, read-out: TGI
# [15] = Toxicity in GFP-labelled human HepG2 cells xenografted BALB/c nude mouse assessed as change in animal weight at 10 mg/kg, iv qod for 29 days; assay type: organism-based; conditions: in vivo, 696 h, time 29 day
# [16] = Cmax in Sprague-Dawley rat assessed as N-(2,6-dimethoxypyridin-3-yl)-7-hydroxy-9-methyl-9H-carbazole-3-sulfonamide level at 2.5 mg/kg, iv; assay type: ADME, organism-based; design: route intravenous, dose 2.5 mg/kg; conditions: in vivo
# [17] = Tmax in Sprague-Dawley rat assessed as N-(2,6-dimethoxypyridin-3-yl)-7-hydroxy-9-methyl-9H-carbazole-3-sulfonamide level at 2.5 mg/kg, iv; assay type: ADME, organism-based; conditions: in vivo
# [18] = Terminal half life in Sprague-Dawley rat assessed as N-(2,6-dimethoxypyridin-3-yl)-7-hydroxy-9-methyl-9H-carbazole-3-sulfonamide level at 2.5 mg/kg, iv; assay type: ADME, organism-based; conditions: in vivo
# [19] = AUC (0 to last) in Sprague-Dawley rat assessed as N-(2,6-dimethoxypyridin-3-yl)-7-hydroxy-9-methyl-9H-carbazole-3-sulfonamide level at 2.5 mg/kg, iv; assay type: ADME, organism-based; design: route intravenous, time 0 - last, dose 2.5 mg/kg; conditions: in vivo
# [20] = MRT (0 to last) in Sprague-Dawley rat assessed as N-(2,6-dimethoxypyridin-3-yl)-7-hydroxy-9-methyl-9H-carbazole-3-sulfonamide level at 2.5 mg/kg, iv; assay type: ADME, organism-based; conditions: in vivo
# [21] = tested on: MDA-MB-231; test: Antitumor activity against human MDA-MB-231 cells xenografted in BALB/c nude mouse assessed as reduction in tumor burden at 60 mg/kg, ip biw for 14 to 29 days relative to control; assay type: functional; design: scale not given: the % may be the effect or the level left; conditions: time 14-29 day
# [22] = Toxicity in human MDA-MB-231 cells xenografted BALB/c nude mouse assessed as effect on body weight at 60 mg/kg, ip biw for 14 to 29 days measured every two days during compound dosing; assay type: organism-based; conditions: in vivo, time 14-29 day
# [23] = tested on: HepG2; test: Antitumor activity against GFP-labelled human HepG2 cells xenografted in BALB/c nude mouse assessed as tumor growth inhibition at 10 mg/kg, iv administered once per week for 29 days relative to control; assay type: functional; conditions: 696 h, time 29 day, read-out: TGI
# [24] = Toxicity in GFP-labelled human HepG2 cells xenografted BALB/c nude mouse assessed as change in animal weight at 10 mg/kg, iv administered once per week for 29 days; assay type: organism-based; conditions: in vivo, 696 h, time 29 day
# [25] = tested on: HepG2; test: Antitumor activity against human HepG2 cells xenografted in BALB/c nude mouse assessed as tumor growth inhibition at 10 mg/kg, iv administered once per week for 29 days by caliper method relative to control; assay type: functional; design: scale not given: the % may be the effect or the level left; conditions: time 29 day
# [26] = Acute toxicity in ip dosed Kunming mouse measured for 7 days; assay type: organism-based; conditions: in vivo, time 7 day
# [27] = tested on: HepG2; test: Antitumor activity against human HepG2 cells xenografted in BALB/c nude mouse assessed as tumor growth inhibition at 25 mg/kg, ip qod for 29 days by caliper method relative to control; assay type: functional; conditions: 696 h, time 29 day, read-out: TGI
# [28] = Elimination half life in Sprague-Dawley rat at 2.5 mg/kg, iv; assay type: ADME, organism-based; conditions: in vivo, read-out: beta t1/2 (converted)
# [29] = Volume of distribution at steady state in Sprague-Dawley rat at 2.5 mg/kg, iv; assay type: ADME, organism-based; conditions: in vivo, read-out: Vdss
# [30] = AUC (0 to last) in Sprague-Dawley rat at 2.5 mg/kg, iv; assay type: ADME, organism-based; design: time 0 - last, route intravenous, dose 2.5 mg/kg; conditions: in vivo
# [31] = MRT (0 to last) in Sprague-Dawley rat at 2.5 mg/kg, iv; assay type: ADME, organism-based; conditions: in vivo
# [32] = Acute toxicity in po dosed Kunming mouse measured for 7 days; assay type: organism-based; conditions: in vivo, time 7 day
# [33] = tested on: HepG2; test: Antitumor activity against human HepG2 cells xenografted in BALB/c nude mouse assessed as reduction in tumor volume at 50 mg/kg administered for 29 days by caliper method relative to control; assay type: functional; design: scale not given: the % may be the effect or the level left; conditions: time 29 day
# [34] = tested on: HepG2; test: Antitumor activity against human HepG2 cells xenografted in BALB/c nude mouse assessed as reduction in tumor volume at 100 mg/kg administered for 29 days by caliper method relative to control; assay type: functional; design: scale not given: the % may be the effect or the level left; conditions: time 29 day
# [35] = Toxicity in human HepG2 cells xenografted BALB/c nude mouse assessed as change in tumor weight at 50 to 100 mg/kg for 29 days; assay type: organism-based; conditions: in vivo, 696 h, dose 50-100 mg/kg, time 29 day
compound,measurement,setting,value
COc1ccc(N(CCN2CCN(C)CC2)S(=O)(=O)c2ccc3c(c2)c2ccccc2n3C)c(OC)n1,pIC50,[1],5.38
same,pIC50,[2],5.22
same,pIC50,[3],4.82
same,survival at 168 h,[4],16.7%
same,survival at 168 h,[5],83.3%
same,survival at 168 h,[6],100%
same,survival at 168 h,[7],100%
same,LD50 at 168 h,[8],89.5 mg/kg
same,Activity,[9],92.29 mm3
same,Activity,[10],914.19 mm3
same,inhibition in vivo at 10 mg/kg,[11],48.3%
same,Activity,[12],1.44 g
same,inhibition in vivo at 5 mg/kg,[13],33.3%
same,inhibition in vivo at 10 mg/kg,[14],60.2%
same,Activity,[15],Non-Toxic
COc1ccc(NS(=O)(=O)c2ccc3c(c2)c2ccc(O)cc2n3C)c(OC)n1,pIC50,[1],7.92
same,pIC50,[2],7.25
same,pIC50,[3],7.85
same,Cmax,[16],22333 ng/mL
same,Tmax,[17],5 min
same,beta t1/2,[18],108 min
same,AUClast,[19],15295 ng·h/mL
same,MRTlast,[20],76.2 min
CC(=O)O[C@H]1C(=O)[C@@]2(C)[C@H]([C@H](OC(=O)c3ccccc3)[C@]3(O)C[C@H](OC(=O)[C@H](O)[C@@H](NC(=O)c4ccccc4)c4ccccc4)C(C)=C1C3(C)C)[C@]1(OC(C)=O)CO[C@@H]1C[C@@H]2O [PACLITAXEL],Activity,[21],36%
same,Activity,[22],Non-Toxic
same,inhibition in vivo at 10 mg/kg,[23],99.4%
same,Activity,[24],Non-Toxic
same,Activity,[25],59.6%
COc1ccc(NS(=O)(=O)c2ccc3c(c2)c2ccc(OP(=O)([O-])[O-])cc2n3C)c(OC)n1.[Na+].[Na+],pIC50,[1],7.72
same,pIC50,[2],7.22
same,pIC50,[3],7.80
same,LD50 at 168 h,[26],273 mg/kg
same,inhibition in vivo at 25 mg/kg,[27],71.7%
same,half-life,[28],43.2 min
same,Vd,[29],0.24 L/kg
same,AUClast,[30],18449 ng·h/mL
same,MRT last,[31],10.2 min
COc1ccc(N(CCOP(=O)([O-])[O-])S(=O)(=O)c2ccc3c(c2)c2ccccc2n3C)c(OC)n1.[Na+].[Na+],pIC50,[1],5.95
same,pIC50,[2],5.71
same,pIC50,[3],5.97
same,LD50 at 168 h,[32],273 mg/kg
same,Activity,[33],54.5%
same,Activity,[34],70.1%
same,Activity,[35],Non-Toxic
